Test results: patent US20060122153A1, “Antineoplastic ether lipid compounds with modifications at the sn-2 carbon” (priority 2003, published 2006)

Columns and labels:
Type in all cases: cell-based, human
Set-up in all cases: key: = means equivalent activity; + means that it appears to be significantly better (i.e., by ˜2x); < means it appears to be less active than ET18OCH3 (˜2x); a combination like =/+ or </+ means that activity is dependent upon the isomer; a combination like =/+ or </+ means that activity is dependent upon the isomer
[1] = test system: MDA-N; assay: NCI growth inhibition screen, breast panel; details: from GI50s
Experimental: (§1) Candidates deemed suitable for in vivo testing were then synthesized in large scale quantities and some of this material was sent to the NCI's Developmental Therapeutics Program for a battery of growth inhibitory studies against various human tumor cell lines (60 cell lines, 9 different panels). The remainder of the material was used to assess in vivo efficacy using murine tumor models. Additionally, studies were conducted on the lead candidates to discern mechanism of action with particular emphasis on these agents apoptotic ability as measured by caspase 3 activity. The details (materials and methods) for these various assays are described further in the following discussion.
(§2) Ten compounds were also sent to NCI's Drug Discovery Program for screening against numerous human tumor cell lines (9 panels total: renal ovarian, colon, CNS, non-small cell lung, leukemia, breast, melanoma, and prostate). The data are shown in FIGS. 2a-i which also include data regarding D- and L-ET-18-OCH3 (listed as L-EL and D-EL in the figures). Upon examining the data, one is struck by how 1R and 1a′S standout in comparison to the other compounds, especially for the renal, ovarian, colon, and CNS panels.

[2] = test system: MDA-MB-435; assay: NCI growth inhibition screen, breast panel; details: MDA-MB-435, Breast; from GI50s
Experimental: as §1, §2

[3] = test system: MDA-MB-231/ATCC; assay: NCI growth inhibition screen, breast panel; details: from GI50s
Experimental: as §1, §2

[4] = test system: A-549/ATCC; assay: NCI growth inhibition screen, non-small cell lung panel; details: NS cell lung, from GI50s
Experimental: as §1, §2

[5] = test system: NCI-H460; assay: as above; details: NCI-H460, NS cell lung; from GI50s
Experimental: as §1, §2

[6] = test system: NCI-H332M; assay: as above; details: NS cell lung, from GI50s
Experimental: as §1, §2

[7] = test system: NCI-H23; assay: as above; details: NCI-H23, NS cell lung; from GI50s
Experimental: as §1, §2

[8] = test system: HOP-92; assay: as above; details: HOP-92, NS cell lung; from GI50s
Experimental: as §1, §2

[9] = test system: EKVX; assay: as above; details: NS cell lung, from GI50s
Experimental: as §1, §2

[10] = test system: HCC-2998; assay: NCI growth inhibition screen, colon panel; details: HCC-2998, Colon; from GI50s
Experimental: as §1, §2

[11] = test system: COLO 205; assay: NCI growth inhibition screen, colon panel; details: COLO 205, Colon; from GI50s
Experimental: as §1, §2

[12] = test system: HCT-15; assay: NCI growth inhibition screen, colon panel; details: HCT-15, Colon; from GI50s
Experimental: as §1, §2

SMILES	Performance as compared to ET-18-O—CH3 [1]	Performance as compared to ET-18-O—CH3 [2]	Performance as compared to ET-18-O—CH3 [3]	Performance as compared to ET-18-O—CH3 [4]	Performance as compared to ET-18-O—CH3 [5]	Performance as compared to ET-18-O—CH3 [6]	Performance as compared to ET-18-O—CH3 [7]	Performance as compared to ET-18-O—CH3 [8]	Performance as compared to ET-18-O—CH3 [9]	Performance as compared to ET-18-O—CH3 [10]	Performance as compared to ET-18-O—CH3 [11]	Performance as compared to ET-18-O—CH3 [12]
CCCCCCCCCCCCCCCCCCOC[C@@H](COP(=O)([O-])OCC[N+](C)(C)C)OS(C)(=O)=O [1a′S]	0	0	0	0	0	0	0	0	0	128	0	512
CCCCCCCCCCCCCCCCCCOCC(COP(=O)([O-])OCC[N+](C)(C)C)OS(C)(=O)=O (stereo not drawn) [Compound 1aR]	=	=	=	=	=	=	=	=	=	+	=	=
